Laboratory results from patent publication US9833497B2, “Human originated EGF domain proteins and use of the same” (CHENGDU SOURCEBIO LIMITED-LIABILITY COMPANY, priority 2013, dated 2017).

Columns and labels:
Assay type in all cases: cell-based
Proteus mirabilis = experiment: MIC against Gram-negative bacteria: Proteus mirabilis; conditions: for MIC: P. mirabilis
Procedure, shortened: (§1)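 MIC = lowest concentration of recombinant protein showing no growth. Test proteins: purified human-derived EGF domain proteins, two-fold dilution series, three wells per concentration; inoculum 5×10^5 CFU/mL in LB; incubation 37° C with shaking at 175 rpm.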

E. coli BL21 = experiment: MIC against Gram-negative bacteria: E. coli BL21
Procedure, shortened: as §1

Klebsiella pneumonia = experiment: MIC against Gram-negative bacteria: Klebsiella pneumonia; conditions: for MIC: K. pneumonia
Procedure, shortened: as §1

Citrobacter diversus = experiment: MIC against Gram-negative bacteria: Citrobacter diversus; conditions: for MIC: C. diversus
Procedure, shortened: as §1

Enterobacter cloacae = experiment: MIC against Gram-negative bacteria: Enterobacter cloacae; conditions: for MIC: E. cloacae
Procedure, shortened: as §1

Proteus vulgaris = experiment: MIC against Gram-negative bacteria: Proteus vulgaris; conditions: for MIC: P. vulgaris
Procedure, shortened: as §1

Pseudomonas aeruginosa = experiment: MIC against Gram-negative bacteria: Pseudomonas aeruginosa; conditions: for MIC: P. aeruginosa
Procedure, shortened: as §1

Serratia marcescens = experiment: MIC against Gram-negative bacteria: Serratia marcescens; conditions: for MIC: S. marcescens
Procedure, shortened: as §1

Aeromonas hydrophila = experiment: MIC against Gram-negative bacteria: Aeromonas hydrophila; conditions: for MIC: A. hydrophila
Procedure, shortened: as §1

Moraxella catarrhalis = experiment: MIC against Gram-negative bacteria: Moraxella catarrhalis; conditions: for MIC: M. catarrhalis
Procedure, shortened: as §1

E. coli DH5α = experiment: Antibacterial activity: MIC and growth curve against E. coli DH5α in 96-well plate; conditions: minimal inhibitory concentration against E. coli DH5α; 96-well plate, 5×10^5 CFU/mL, 37° C., judged after 8 h
Procedure, shortened: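 Log-phase DH5α (OD600 about 0.5, 37° C, 185 rpm in LB) was pelleted, resuspended in fresh LB and seeded at 5×10^5 CFU/mL with recombinant protein at 50, 25 and 12.5 μg/mL (two-fold series), in triplicate. Plates were shaken at 175 rpm, 37° C, and OD600 was read every 30 min. MIC was the lowest concentration with no growth.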

[1] = 96-well plate, 5×10^5 CFU/mL, 37° C., 10 h
[2] = 10 h cultivation at 37° C., 5×10^5 CFU/mL, two-fold serial dilution
[3] = E. coli BL21, 10 h cultivation at 37° C.

| Substance | MIC P. mirabilis (Proteus mirabilis; [1]) [µg/mL] | MIC E. coli BL21 (E. coli BL21; [1]) [µg/mL] | MIC K. pneumonia (Klebsiella pneumonia; [1]) [µg/mL] | MIC C. diversus (Citrobacter diversus; [1]) [µg/mL] | MIC E. cloacae (Enterobacter cloacae; [1]) [µg/mL] | MIC P. vulgaris (Proteus vulgaris; [1]) [µg/mL] | MIC P. aeruginosa (Pseudomonas aeruginosa; [1]) [µg/mL] | MIC S. marcescens (Serratia marcescens; [1]) [µg/mL] | MIC A. hydrophila (Aeromonas hydrophila; [1]) [µg/mL] | MIC M. catarrhalis (Moraxella catarrhalis; [1]) [µg/mL] | MIC (E. coli DH5α) [µg/mL] | MIC (Proteus mirabilis; 10 h cultivation at 37° C.) [µg/mL] | MIC (E. coli BL21; [3]) [µg/mL] | MIC (Klebsiella pneumonia; 10 h cultivation at 37° C.) [µg/mL] | MIC (Citrobacter diversus; 10 h cultivation at 37° C.) [µg/mL] | MIC (Enterobacter cloacae; 10 h cultivation at 37° C.) [µg/mL] | MIC (Proteus vulgaris; 10 h cultivation at 37° C.) [µg/mL] | MIC (Pseudomonas aeruginosa; 10 h cultivation at 37° C.) [µg/mL] | MIC (Serratia marcescens; 10 h cultivation at 37° C.) [µg/mL] | MIC (Aeromonas hydrophila; 10 h cultivation at 37° C.) [µg/mL] | also measured |
| --- | --- | --- | --- | --- | --- | --- | --- | --- | --- | --- | --- | --- | --- | --- | --- | --- | --- | --- | --- | --- | --- |
| PRT693 (SSGMCQRNPQVCGPGRCISRPSGYTCACDSGFRLSPQGTRCI; listed as Homo sapiens) | 25 | 12.5 | 25 | 50 | 12.5 | 50 | 50 | 50 | 25 | 12.5 | 25 |  |  |  |  |  |  |  |  |  |  |
| PRT1082 (GTNPCSVNNGDCSQLCLPTSETTRSCMCTAGYSLRSGQQACE; listed as Homo sapiens) |  |  |  |  |  |  |  |  |  |  | 50 |  |  |  |  |  |  |  |  |  | MIC P. mirabilis (Proteus mirabilis; [2]): 25 µg/mL; MIC E. coli BL21 (E. coli BL21; [2]): 12.5 µg/mL; MIC K. pneumonia (Klebsiella pneumonia; [2]): 50 µg/mL; MIC C. diversus (Citrobacter diversus; [2]): 25 µg/mL; MIC E. cloacae (Enterobacter cloacae; [2]): 25 µg/mL; MIC P. vulgaris (Proteus vulgaris; [2]): 12.5 µg/mL; MIC P. aeruginosa (Pseudomonas aeruginosa; [2]): 25 µg/mL; MIC S. marcescens (Serratia marcescens; [2]): 25 µg/mL; MIC A. hydrophila (Aeromonas hydrophila; [2]): 12.5 µg/mL; MIC M. catarrhalis (Moraxella catarrhalis; [2]): 50 µg/mL |
| PRT1436 (AERNCRNPELNPCSVNAQCIEERQGDVTCVCGVGWAGDGYICG; listed as Homo sapiens) |  |  |  |  |  |  |  |  |  |  | 12.5 |  |  |  |  |  |  |  |  |  | MIC against P. mirabilis (Proteus mirabilis; Proteus mirabilis, 5×10^5 CFU/mL, 10 h cultivation at 37° C.): 12.5 µg/mL; MIC against E. coli BL21 (E. coli BL21; E. coli BL21, 5×10^5 CFU/mL, 10 h cultivation at 37° C.): 12.5 µg/mL; MIC against K. pneumonia (Klebsiella pneumonia; Klebsiella pneumonia, 5×10^5 CFU/mL, 10 h cultivation at 37° C.): 50 µg/mL; MIC against C. diversus (Citrobacter diversus; Citrobacter diversus, 5×10^5 CFU/mL, 10 h cultivation at 37° C.): 25 µg/mL; MIC against E. cloacae (Enterobacter cloacae; Enterobacter cloacae, 5×10^5 CFU/mL, 10 h cultivation at 37° C.): 12.5 µg/mL; MIC against P. vulgaris (Proteus vulgaris; Proteus vulgaris, 5×10^5 CFU/mL, 10 h cultivation at 37° C.): 25 µg/mL; MIC against P. aeruginosa (Pseudomonas aeruginosa; Pseudomonas aeruginosa, 5×10^5 CFU/mL, 10 h cultivation at 37° C.): 12.5 µg/mL; MIC against S. marcescens (Serratia marcescens; Serratia marcescens, 5×10^5 CFU/mL, 10 h cultivation at 37° C.): 12.5 µg/mL; MIC against A. hydrophila (Aeromonas hydrophila; Aeromonas hydrophila, 5×10^5 CFU/mL, 10 h cultivation at 37° C.): 50 µg/mL; MIC against M. catarrhalis (Moraxella catarrhalis; Moraxella catarrhalis, 5×10^5 CFU/mL, 10 h cultivation at 37° C.): 25 µg/mL |
| PRT1027 (PGNPCYDGSHMCDTTARCHPGTGVDYTCECASGYQGDGRNCV; listed as Homo sapiens) |  |  |  |  |  |  |  |  |  |  | 12.5 | 50 | 25 | 25 | 50 | 50 | 12.5 | 12.5 | 50 | 12.5 | MIC (Moraxella catarrhalis; 10 h cultivation at 37° C.): 12.5 µg/mL |
| PRT957 (APPCLDGSPCANGGRCTQLPSREAACLCPPGWVGERCQ; listed as Homo sapiens) |  |  |  |  |  |  |  |  |  |  | 12.5 | 25 | 25 | 25 | 50 | 12.5 | 50 | 50 | 12.5 | 25 | MIC (Moraxella catarrhalis; 10 h cultivation at 37° C.): 12.5 µg/mL |
| PRT721 (DIDECTEMPFVCSQKCENVIGSYICKCAPGYLREPDGKTCR; listed as Homo sapiens) | 12.5 | 12.5 | 50 | 25 | 25 | 12.5 | 25 | 50 | 12.5 | 50 | 25 |  |  |  |  |  |  |  |  |  |  |
